ChEMBL document CHEMBL1201862, “PubChem BioAssay data set” (2004)
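The compound was tested at five concentrations on cells cultured in 96-well plates, with a 48-hour exposure period. Here, GI50 denotes the concentration required for 50% inhibition of growth.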 Activity calls are given as the source filed them. Rule as the data show it: active = GI50 up to about 1.1 µM and inactive = higher.

Legend:
Assay in all cases: growth of human tumour cells (NCI), 48 h
COLO 205 = test system: COLO 205
DU-145 = test system: DU-145
HCC 2998 = test system: HCC 2998
HCT-116 = test system: HCT-116
HL-60 = test system: HL-60
HOP-92 = test system: HOP-92
Hs-578T = test system: Hs-578T
IGROV-1 = test system: IGROV-1
LOX IMVI = test system: LOX IMVI
Malme-3M = test system: Malme-3M
OVCAR-8 = test system: OVCAR-8
PC-3 = test system: PC-3
RPMI-8226 = test system: RPMI-8226
SK-MEL-28 = test system: SK-MEL-28
SK-MEL-5 = test system: SK-MEL-5
SK-OV-3 = test system: SK-OV-3
SN12C = test system: SN12C
T47D = test system: T47D
TK-10 = test system: TK-10
NCI-H522 = test system: NCI-H522

Measured: GI50

CC(C)/C(Cl)=N\OC(NC(=O)P(=O)(c1ccccc1)c1ccccc1)(C(F)(F)F)C(F)(F)F
inactive: COLO 205 11.7 µM | DU-145 11.1 µM | HCC 2998 14.8 µM | HCT-116 9.16 µM | HL-60 11.5 µM | HOP-92 2.46 µM | Hs-578T 23.9 µM | IGROV-1 10.8 µM | LOX IMVI 11.3 µM | Malme-3M 7.52 µM | OVCAR-8 13 µM | PC-3 12.6 µM | RPMI-8226 10.3 µM | SK-MEL-28 14.9 µM | SK-MEL-5 13.8 µM | SK-OV-3 27 µM | SN12C 11.9 µM | T47D 10.9 µM | TK-10 11.7 µM

Nc1ncn(C/C=C/c2ccccc2)c2ncnc1-2
inactive: COLO 205 > 100 µM | DU-145 > 100 µM | HCC 2998 > 100 µM | HCT-116 > 100 µM | HOP-92 > 100 µM | Hs-578T > 100 µM | IGROV-1 > 100 µM | LOX IMVI > 100 µM | Malme-3M > 100 µM | NCI-H522 78.2 µM | OVCAR-8 > 100 µM | PC-3 > 100 µM | RPMI-8226 > 100 µM | SK-MEL-28 > 100 µM | SK-MEL-5 > 100 µM | SK-OV-3 > 100 µM | SN12C > 100 µM | T47D > 100 µM | TK-10 > 100 µM

CC(C)(Cl)C(Br)CCC(C)(Br)C(Br)CBr (stereo unspecified)
inactive: COLO 205 16.9 µM | DU-145 19.6 µM | HCC 2998 13.1 µM | HCT-116 16 µM | HL-60 17 µM | HOP-92 21.5 µM | Hs-578T 21.5 µM | IGROV-1 19.6 µM | Malme-3M 17.4 µM | NCI-H522 13 µM | OVCAR-8 16.2 µM | PC-3 24.9 µM | RPMI-8226 19.2 µM | SK-MEL-28 17.2 µM | SK-MEL-5 14.6 µM | SK-OV-3 29.1 µM | SN12C 20 µM | T47D 18.7 µM | TK-10 27.5 µM

C=CCN1CCC(OC(=O)C(O)(C#CC)C2CCCC2)CC1 (stereo unspecified)
inactive: COLO 205 > 100 µM | DU-145 > 100 µM | HCC 2998 > 100 µM | HCT-116 > 100 µM | HOP-92 > 100 µM | Hs-578T > 100 µM | IGROV-1 > 100 µM | LOX IMVI > 100 µM | Malme-3M > 100 µM | NCI-H522 > 100 µM | OVCAR-8 > 100 µM | PC-3 > 100 µM | RPMI-8226 > 100 µM | SK-MEL-28 > 100 µM | SK-MEL-5 > 100 µM | SK-OV-3 > 100 µM | SN12C > 100 µM | T47D > 100 µM | TK-10 > 100 µM

O=C1Nc2ccccc2C(=O)/C1=C/NC(=S)NC1CCCCC1
inactive: COLO 205 > 100 µM | DU-145 > 100 µM | HCC 2998 > 100 µM | HCT-116 > 100 µM | HL-60 > 100 µM | HOP-92 > 100 µM | Hs-578T > 100 µM | IGROV-1 > 100 µM | LOX IMVI > 100 µM | NCI-H522 > 100 µM | OVCAR-8 > 100 µM | PC-3 > 100 µM | RPMI-8226 > 100 µM | SK-MEL-5 > 100 µM | SK-OV-3 > 100 µM | SN12C > 100 µM | T47D > 100 µM | TK-10 > 100 µM

CC12CN(CC[N+](C)(C)C)CC1(C)C1CCC2O1 (stereo unspecified)
inactive: COLO 205 > 100 µM | DU-145 > 100 µM | HCC 2998 > 100 µM | HCT-116 > 100 µM | HOP-92 > 100 µM | Hs-578T > 100 µM | IGROV-1 > 100 µM | LOX IMVI > 100 µM | Malme-3M > 100 µM | NCI-H522 > 100 µM | OVCAR-8 > 100 µM | PC-3 > 100 µM | RPMI-8226 > 100 µM | SK-MEL-28 > 100 µM | SK-MEL-5 > 100 µM | SK-OV-3 > 100 µM | SN12C > 100 µM | T47D > 100 µM | TK-10 > 100 µM

C#CCOC(=O)C(N)CCCNC(=N)N (stereo unspecified)
inactive: COLO 205 > 100 µM | DU-145 > 100 µM | HCC 2998 > 100 µM | HCT-116 > 100 µM | HL-60 > 100 µM | HOP-92 > 100 µM | Hs-578T > 100 µM | IGROV-1 > 100 µM | LOX IMVI > 100 µM | Malme-3M > 100 µM | NCI-H522 > 100 µM | OVCAR-8 > 100 µM | PC-3 > 100 µM | RPMI-8226 > 100 µM | SK-MEL-28 > 100 µM | SK-MEL-5 > 100 µM | SN12C > 100 µM | T47D > 100 µM | TK-10 > 100 µM

CCN(CC)C1Oc2cc3c(cc2C(c2ccc(OC)cc2)C1C)OCO3 (stereo unspecified)
inactive: COLO 205 17.6 µM | DU-145 25.6 µM | HCC 2998 19 µM | HCT-116 15.8 µM | HOP-92 25.3 µM | Hs-578T 18.7 µM | IGROV-1 29.5 µM | LOX IMVI 16.1 µM | Malme-3M 18.3 µM | NCI-H522 15 µM | OVCAR-8 19.5 µM | PC-3 23.8 µM | RPMI-8226 17 µM | SK-MEL-28 20.4 µM | SK-MEL-5 17.3 µM | SK-OV-3 40.2 µM | SN12C 21.7 µM | T47D 26.9 µM | TK-10 18.7 µM
